Laboratory results from patent publication US4091006A, “Esters of 3-hydroxyindone compounds” (priority 1975, dated 1978).

Test system: adults and nymphal stages of the two-spotted mite
Experiment: Mite Foliage Spray Test
Assay type: in vivo, Tetranychus urticae (Koch)
Details: 4 days
From the text: (§1) The test procedures were as follows:
(§2) Compositions were rated on the basis of percent kill with a rating of 1 indicating no mortality; 3 signifying an approximately 50% mortality and 5 indicating 100% mortality at the indicated dosage.

Row | Compound | Mite Adult rating
1 | CCC(=O)OC1=C(c2c(C)cc(C)cc2C)C(=O)c2ccccc21 [2-(2',4',6'-Trimethylphenyl)-3-(propionyloxy)indone] | 5 (100% mortality)
2 | CCCCC(CC)C(=O)OC1=C(c2c(C)cc(C)cc2C)C(=O)c2ccccc21 (centres unmarked) [2-(2',4',6'-Trimethylphenyl)-3-(2-ethylhexanoyloxy)indone] | 5 (100% mortality)
3 | Cc1cc(C)c(C2=C(OC(=O)C3CC4C=CC3C4)c3ccccc3C2=O)c(C)c1 (stereo not drawn) [2-(2',4',6'-Trimethylphenyl)-3-(endo-exonorborn-5-en-2-carbonyloxy)indone] | 5 (100% mortality)

Test system: Mite Adults
Experiment: whole plant or invertebrate
Details: concentration to kill 95 percent
Description: Adults and nymphal stages of the two-spotted mite (tetranychus urticae (Koch)), reared on Tendergreen bean plants at 80±5° F. and 50±5 percent relative humidity, were the test organisms. Infested leaves from a stock culture were placed on the primary leaves of two bean plants 6 to 8 inches in height, growing in a 21/2 inch clay pot. 150-200 Mites, a sufficient number for testing, transferred from the excised leaves to the fresh plants in a period of 24 hours. Following the 24 hour transfer period, the excised leaves were removed from the infested plants. The test compounds were formulated by diluting the stock suspension with water to provide suspensions containing the desired amount of test compound per million parts of final formulation. The potted plants (one pot per compound) were placed on a revolving turntable and sprayed with 100-110 milliliters of test compound formulation by use of a DeVilbis spray gun set at 40 psi. air pressure. This application, which lasted 30 seconds, was sufficient to wet the plants to run-off. As a control, 100-110 milliliters of a water solution containing acetone and emulsifier in the same concentrations as the test compound formulation, but containing no test compound, were also sprayed on infested plants. The sprayed plants were held at 80±5° F. and 50±5 percent relative humidity for 4 days, after which, a mortality count of motile forms was made. Microscopic examination for motile forms was made on the leaves of the test plants. Any individual which was capable of locomotion upon prodding was considered living.
(§3) Side by side comparison tests were conducted to determine the effectiveness of selected enol ester compounds relative to (bis(p-chlorophenyl)trichlorethanol) a miticide sold under the trademark Kelthane and ovex (p-chlorophenyl-p-chlorobenzene sulfonate) two widely used commercial miticides.

Row | Compound | Mite Adults LD95
4 | CCCCC(CC)C(=O)OC1=C(c2c(C)cc(C)cc2C)C(=O)c2ccccc21 (centres unmarked) [2-(2',4',6'-Trimethylphenyl)-3-(2-ethylhexanoyloxy)indone] | 230 ppm

Test system: Tomato
Experiment: Phytotoxicity, tomato
Details: 2500 ppm, 10 days

Row | Compound | Phytotoxicity Rating, Tomato
5 | CCC(=O)OC1=C(c2c(C)cc(C)cc2C)C(=O)c2ccccc21 [2-(2',4',6'-Trimethylphenyl)-3-(propionyloxy)indone] | 2
6 | CCCCC(CC)C(=O)OC1=C(c2c(C)cc(C)cc2C)C(=O)c2ccccc21 (centres unmarked) [2-(2',4',6'-Trimethylphenyl)-3-(2-ethylhexanoyloxy)indone] | 1
7 | Cc1cc(C)c(C2=C(OC(=O)C3CC4C=CC3C4)c3ccccc3C2=O)c(C)c1 (stereo not drawn) [2-(2',4',6'-Trimethylphenyl)-3-(endo-exonorborn-5-en-2-carbonyloxy)indone] | 1

Test system: Perennial rye grass, crabgrass, red root pigweed, mustard
Experiment: Preliminary Herbicide Seed Germination Test
Details: rating/maximum 15: 100 ppm only, crabgrass omitted, each rated 1 (no injury) to 5 (no seedlings emerged)

Row | Compound | Herbicide (total preemergence rating)
8 | Cc1cc(C)c(C2=C(OC(=O)C3CC4C=CC3C4)c3ccccc3C2=O)c(C)c1 (stereo not drawn) [2-(2',4',6'-Trimethylphenyl)-3-(endo-exonorborn-5-en-2-carbonyloxy)indone] | 11/15

Same assay, conditions: rating/maximum 40: 100 and 1000 ppm, four species, each rated 1 (no injury) to 5 (no seedlings emerged), 10-12 days

Row | Compound | Herbicide (total preemergence rating)
9 | CCC(=O)OC1=C(c2c(C)cc(C)cc2C)C(=O)c2ccccc21 [2-(2',4',6'-Trimethylphenyl)-3-(propionyloxy)indone] | 32/40
10 | CCCCC(CC)C(=O)OC1=C(c2c(C)cc(C)cc2C)C(=O)c2ccccc21 (centres unmarked) [2-(2',4',6'-Trimethylphenyl)-3-(2-ethylhexanoyloxy)indone] | 29/40

Test system: Mite Ova
Experiment: whole plant or invertebrate
Details: concentration to kill 95 percent
Description: The test organism was the egg of the two-spotted mite (Tetranychus urticae (Koch)), as obtained from adults reared on Tendergreen bean plants under controlled conditions of 80±5° F. and 50±5 percent relative humidity. Heavily infested leaves from a stock culture were placed on the primary leaves of two bean plants 6 to 8 inches in height, growing in a 21/2 inch clay pot. Females were allowed to oviposit for a period of 48 hours and then the leaves of the infested plants were dipped in a solution containing 800 parts of tetraethyl pyrophosphate per million parts of water in order to destroy the reproductory forms and thus prevent further egg laying. […] The plants were allowed to dry thoroughly. […] The potted plants (one pot per compound) were placed on a revolving turntable and sprayed with 100-110 milliliters of test compound formulation by use of a DeVilbis spray gun set at 40 psig. air pressure. This application, which lasted 30 seconds, was sufficient to wet the plants to run-off. As a control, 100-110 milliliters of a water solution containing acetone and emulsifier in the same concentrations as the test compound formulation, but containing no test compound, were also sprayed on plants infested with eggs. The sprayed plants were held at 80±5° F. and 50±5 percent relative humidity for 4 days, after which a microscopic examination was made of unhatched (dead) and hatched (living) eggs.
as §3

Row | Compound | Mite Ova LD95
11 | CCCCC(CC)C(=O)OC1=C(c2c(C)cc(C)cc2C)C(=O)c2ccccc21 (centres unmarked) [2-(2',4',6'-Trimethylphenyl)-3-(2-ethylhexanoyloxy)indone] | 6 ppm

Test system: Corn
Experiment: Phytotoxicity, corn
Details: 2500 ppm, 10 days
Description: (§5) Experiments were also conducted to determine the phytotoxicity of representative enol ester compositions with respect to healthy fresh plants. […] The test plants were sprayed in accordance with the procedure described above for the Mite Foliage Spray Test so as to deliver approximately 100 milliliters of test solution to the leaves of each plant tested. The sprayed plants and controls were set aside for approximately 1 hour to allow the solutions to dry and were then placed in the greenhouse. After 10 days the plants were visually inspected to determine the extent of foliage injury. A rating of 1 indicates no perceptible injury; 5 indicates the plant was dead and ratings of 2, 3 and 4 indicate intermediate degrees of injury based upon the number and extent to which leaves were injured.

Row | Compound | Phytotoxicity Rating, Corn
12 | CCC(=O)OC1=C(c2c(C)cc(C)cc2C)C(=O)c2ccccc21 [2-(2',4',6'-Trimethylphenyl)-3-(propionyloxy)indone] | 2
13 | CCCCC(CC)C(=O)OC1=C(c2c(C)cc(C)cc2C)C(=O)c2ccccc21 (centres unmarked) [2-(2',4',6'-Trimethylphenyl)-3-(2-ethylhexanoyloxy)indone] | 1
14 | Cc1cc(C)c(C2=C(OC(=O)C3CC4C=CC3C4)c3ccccc3C2=O)c(C)c1 (stereo not drawn) [2-(2',4',6'-Trimethylphenyl)-3-(endo-exonorborn-5-en-2-carbonyloxy)indone] | 1

Test system: Bean
Experiment: Phytotoxicity, bean
Details: 2500 ppm, 10 days
Description: as §5

Row | Compound | Phytotoxicity Rating, Bean
15 | CCC(=O)OC1=C(c2c(C)cc(C)cc2C)C(=O)c2ccccc21 [2-(2',4',6'-Trimethylphenyl)-3-(propionyloxy)indone] | 1
16 | CCCCC(CC)C(=O)OC1=C(c2c(C)cc(C)cc2C)C(=O)c2ccccc21 (centres unmarked) [2-(2',4',6'-Trimethylphenyl)-3-(2-ethylhexanoyloxy)indone] | 2
17 | Cc1cc(C)c(C2=C(OC(=O)C3CC4C=CC3C4)c3ccccc3C2=O)c(C)c1 (stereo not drawn) [2-(2',4',6'-Trimethylphenyl)-3-(endo-exonorborn-5-en-2-carbonyloxy)indone] | 1

Test system: eggs of the two-spotted mite
Experiment: Fumigant toxicity, Method 1 (deposit in pie plate)
Assay type: in vivo
Details: deposit approx. 160 μg per square cm, 4 days
Description: (§4) Two methods were used to evaluate fumigant properties:
Method 1: Fifty mg. of each compound were dissolved in 5 ml. of acetone and poured into a 20 cm. (bottom diameter) Pyrex No. 210 pie plate. The acetone was allowed to evaporate leaving a deposit of approximately 160 μg. per square cm. The plate was then placed in the bottom of a 50 pound metal lard container (about 30 cm. in diameter and 34 cm. high). Two excised bean plants, held in a 250 ml. Erlenmeyer flask containing 100 ml. of tap water and infested with eggs of the two-spotted mite, were placed in the center of the pie plate. The container was held in the insectary (temperature 80±5° F., 50±5% R. H.) for four days before mortality determinations were made.

Row | Compound | Fumigant Toxicity Method 1
18 | CCC(=O)OC1=C(c2c(C)cc(C)cc2C)C(=O)c2ccccc21 [2-(2',4',6'-Trimethylphenyl)-3-(propionyloxy)indone] | 5 (80-100% control)
19 | CCCCC(CC)C(=O)OC1=C(c2c(C)cc(C)cc2C)C(=O)c2ccccc21 (centres unmarked) [2-(2',4',6'-Trimethylphenyl)-3-(2-ethylhexanoyloxy)indone] | 1
20 | Cc1cc(C)c(C2=C(OC(=O)C3CC4C=CC3C4)c3ccccc3C2=O)c(C)c1 (stereo not drawn) [2-(2',4',6'-Trimethylphenyl)-3-(endo-exonorborn-5-en-2-carbonyloxy)indone] | 1

Test system: egg forms of the two-spotted mite
Experiment: Fumigant toxicity, Method 2 (treated plants near untreated infested plants)
Assay type: in vivo
Details: 500 ppm dip, 4 days
Description: as §4
Method 2: Excised bean plants infested with egg forms of the two-spotted mite were dipped in an aqueous preparation (500 ppm) of the test compound. The treated plants were transferred to 250 ml. Erlenmeyer flasks containing 100 ml. of tap water. Four flasks holding treated plants were evenly spaced around a similar flask in which were placed untreated mite-infested plants so that the leaves of the treated foliage were in close proximity (1-3 inches) to the untreated plants. Four days later mortality determinations were made.

Row | Compound | Fumigant Toxicity Method 2
21 | CCC(=O)OC1=C(c2c(C)cc(C)cc2C)C(=O)c2ccccc21 [2-(2',4',6'-Trimethylphenyl)-3-(propionyloxy)indone] | 5 (80-100% control)
22 | CCCCC(CC)C(=O)OC1=C(c2c(C)cc(C)cc2C)C(=O)c2ccccc21 (centres unmarked) [2-(2',4',6'-Trimethylphenyl)-3-(2-ethylhexanoyloxy)indone] | 1
23 | Cc1cc(C)c(C2=C(OC(=O)C3CC4C=CC3C4)c3ccccc3C2=O)c(C)c1 (stereo not drawn) [2-(2',4',6'-Trimethylphenyl)-3-(endo-exonorborn-5-en-2-carbonyloxy)indone] | 1

Test system: egg of the two-spotted mite
Experiment: Mite Ovicide Test
Assay type: in vivo, Tetranychus urticae (Koch)
Details: spray on eggs, 4 days
From the text: as §1
The plants were allowed to dry thoroughly.
as §2

Row | Compound | Mite Ova rating
24 | CCC(=O)OC1=C(c2c(C)cc(C)cc2C)C(=O)c2ccccc21 [2-(2',4',6'-Trimethylphenyl)-3-(propionyloxy)indone] | 5 (100% mortality)
25 | CCCCC(CC)C(=O)OC1=C(c2c(C)cc(C)cc2C)C(=O)c2ccccc21 (centres unmarked) [2-(2',4',6'-Trimethylphenyl)-3-(2-ethylhexanoyloxy)indone] | 5 (100% mortality)
26 | Cc1cc(C)c(C2=C(OC(=O)C3CC4C=CC3C4)c3ccccc3C2=O)c(C)c1 (stereo not drawn) [2-(2',4',6'-Trimethylphenyl)-3-(endo-exonorborn-5-en-2-carbonyloxy)indone] | 5 (100% mortality)

Test system: Cotton
Experiment: Phytotoxicity, cotton
Details: 2500 ppm, 10 days

Row | Compound | Phytotoxicity Rating, Cotton
27 | CCC(=O)OC1=C(c2c(C)cc(C)cc2C)C(=O)c2ccccc21 [2-(2',4',6'-Trimethylphenyl)-3-(propionyloxy)indone] | 1
28 | CCCCC(CC)C(=O)OC1=C(c2c(C)cc(C)cc2C)C(=O)c2ccccc21 (centres unmarked) [2-(2',4',6'-Trimethylphenyl)-3-(2-ethylhexanoyloxy)indone] | 1
29 | Cc1cc(C)c(C2=C(OC(=O)C3CC4C=CC3C4)c3ccccc3C2=O)c(C)c1 (stereo not drawn) [2-(2',4',6'-Trimethylphenyl)-3-(endo-exonorborn-5-en-2-carbonyloxy)indone] | 2
